The values that follow come from US20240182470A1, “KRASG12C MUTANT PROTEIN INHIBITOR, PREARATION AND USE THEREOF” (YA THERAPEUTICS INC, priority 2021, published 2024).

In general, IC50 refers to the concentration that inhibits the measured activity by half.

Where two headings read alike, the source gives them in different places.

In data set [1] the test system is H358 (KRAS G12C mutant) cells. Description: Tumor cell proliferation inhibition assay (Cell Titer-Glo, 72 h). The format is cell-based. To be noted: inhibition of tumor cell proliferation, 72 hours with compound, 10% fetal bovine serum, read-out: NCI-H538 IC50(nm). In a few lines: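 H358 cells seeded, cultured 24 h, then exposed to serial compound concentrations for 72 h in 10% FBS at 37 °C, 5% CO2. ATP measured by CellTiter-Glo; % inhibition relative to DMSO (max) and medium-only (min) signals. IC50 from sigmoid dose-response fit, binned into categories A–D.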
For orientation: ATP-based viability assays read luminescence as a measure of living cells.

Data set [2] concerns the target T1, KRAS-G2C/SOS1 (Homo sapiens, UniProt P01116, G12C).
T1 construct: Tag2 (identity not disclosed)
As to the kind of experiment: KRAS-G12C/SOS1 binding experiment (HTRF). To be noted: Tag2-KRAS-G12C protein and Tag1-SOS protein. On the procedure: • A) Dilute Tag2-KRAS-G12C protein and Tag1-SOS protein with diluent at 1:100, anti-Tag1-Tb3+ antibody and anti-Tag2-XL665 with detection buffer at 1:100 or 1:25 respectively Dilute. • B) Dilute the compound to be tested with diluent starting from […] concentration, 4 times gradient, a total of 6 concentration gradients, and dilute to 10× stock solution. • C) In a 96-well plate, add 4 uLTag2-KRAS-G12C protein, 4 uL Tagl-SOS protein, 2 ul dilution solution (positive control) or test compound (different concentrations of 10× stock solution) to each well in sequence, a total of 10 ul, and incubate at room temperature for […], add pre-mixed 5 uL anti-Tagl-Tb3+ and 5 uL anti-Tag2-xL665, seal the plate, incubate at room temperature for 2 hours, and read the HTRF signal with a TECAN INFINITEF NANO+ microplate reader.
The ratio of […] and donor excitation signals for each single well was calculated using the formula ratio=665 nm signal value/620 nm signal value×[…]. Data were processed using Graphpadprism5 software. IC50 values were calculated by sigmoidal dose-response curve fitting.
In general terms: In TR-FRET formats the signal depends on donor and acceptor labels being close together.

The conditions of data set [3]: background statement; cited from earlier work.
Data set [4] concerns the target KRAS G12C (Homo sapiens, UniProt P01116, G12C). The settings on record: background statement; cited from earlier work.

`C=CC(=O)N1CCN(c2cc(OC[C@@H]3CCCN3C)nc3nc(-c4cccc5cccc(F)c45)c(F)cc23)[C@H](C)C1` [Compound 7]: the half-inhibitory concentration (IC50) is not above 50 nM in data set [1] (Homo sapiens, NCI-H358) and less than 50 nM in data set [2].
The corresponding values for `C=CC(=O)N1C2CCC1CN(c1cc(OC[C@@]34CCCN3C[C@H](F)C4)nc3nc(-c4cccc5cccc(F)c45)c(F)cc13)C2` [Compound 28] are not above 50 nM and less than 50 nM.
`C=CC(=O)N1CC(N2CCN(C(=O)CNc3cc(C4(C)CC4)c(Cl)cc3O)CC2)C1` [ARS-853]: in data set [3], the pharmacokinetic properties entry was “poor”.
For the compound `C=CC(=O)N1CCN(c2cc(OC[C@@H]3CCCN3C)nc3nc(-c4c(O)cccc4F)ccc23)[C@H](C)C1` [Compound 1, 7-(2-Fluoro-6-hydroxyphenyl)-4-(((R)-4-acryloyl-2-methylpiperazine)-1-yl)-2-(((S)-1-methylpyrrolidin-2-yl)methoxy)-1,8-naphthyridine], the IC50 in data set [1] was more than 2000 nM; in data set [2], more than 500 nM.
Take `C=C(F)C(=O)N1CCN(c2cc(OC[C@@H]3CCCN3C)nc3nc(-c4c(O)cccc4F)c(F)cc23)C[C@@H]1CC#N` [Compound 4, 7-(2-Fluoro-6-hydroxyphenyl)-6-fluoro-4-(((S)-4-(2-fluoroacryloyl)-3-carbonitrileethylpiperazine)-1-yl)-2-(((S)-1-methylpyrrolidin-2-yl)methoxy)-1,8-naphthyridine]: the half-maximal inhibitory concentration (IC50) is more than 2000 nM in data set [1] (Homo sapiens, NCI-H358) and more than 500 nM in data set [2].
As to `C=CC(=O)N1CCN(c2ncnc3c(F)c(-c4c(O)cccc4F)c(Cl)cc23)CC1` [ARS-1620], the “tumor effect in vivo” value in data set [4] is given as “induce tumor regression”.
For the compound `C=CC(=O)N1CCN(c2cc(OC[C@@H]3CCCN3C)nc3nc(-c4c(O)cccc4F)c(F)cc23)C[C@@H]1CC#N` [Compound 3], the 50% inhibitory concentration (IC50) in data set [1] (Homo sapiens, NCI-H358) was more than 2000 nM; in data set [2], more than 500 nM.
Regarding `C=C(F)C(=O)N1CCN(c2cc(OC[C@@H]3CCCN3C)nc3nc(-c4c(O)cccc4F)c(F)cc23)[C@H](C)C1` [Compound 2, 7-(2-Fluoro-6-hydroxyphenyl)-6-fluoro-4-(((R)-4-(2-fluoroacryloyl)-2-methylpiperazine)-1-yl)-2-(((S)-1-methylpyrrolidin-2-yl)methoxy)-1,8-naphthyridine], the IC50 in data set [1] (Homo sapiens, NCI-H358) is more than 2000 nM; in data set [2] it was more than 500 nM.
In the case of “7-(8-Fluoronaphthyl)-6-fluoro-4-(((S)-4-(2-fluoroacryloyl)-3-carbonitrileethylpiperazine)-1-yl)-2-((((S)-1-methylpyrrolidin-2-yl)methoxy)-1,8-naphthyridine [Compound 5]”, the half-maximal inhibitory concentration (IC50) in data set [1] is not above 50 nM; in data set [2], less than 50 nM.
With `C=CC(=O)N1C2CCC1CN(c1nc(OC[C@@]34CCCN3C[C@H](F)C4)nc3nc(-c4cccc5cccc(F)c45)c(F)cc13)C2` [Compound 27], the half-inhibitory concentration (IC50) in data set [1] was not above 50 nM.
Take “7-(8-Methylnaphthyl)-6-fluoro-4-(((R)-4-acryloyl-2-methylpiperazine)-1-yl)-2-(((2R,7aS)-2-fluorotetrahydro-1H-pyrincyclo-7a(5H)-yl)methoxy)pyridine[2,3-d]lopyrimidine [Compound 81]”: in data set [1], the half-inhibitory concentration (IC50) is not above 50 nM.
Take `C=C(F)C(=O)N1C2CCC1CN(c1nc(OC[C@@]34CCCN3C[C@H](F)C4)nc3c(F)c(-c4cccc5cccc(F)c45)c(Cl)cc13)C2` [Compound 39, 6-Chloro-7-(8-fluoronaphthyl)-8-fluoro-4-(8-(2-fluoroacryloyl)-3,8-diazabicyclo[3.2.1]octan-3-yl)-2-(((2R,7aS)-2-fluorotetrahydro-1H-pyrincycline-7a(5H)-yl)methoxy)quinazoline]: in data set [1], the IC50 is not above 50 nM.
Same read-out and setting: the result for `C=CC(=O)N1CCN(c2nc(OCC34CCCN3CCC4)nc3c(F)c(-c4cccc5cccc(F)c45)ccc23)[C@H](C)C1` [Compound 50, 7-(8-fluoronaphthyl)-8-fluoro-4-(((R)-4-acryloyl-2-methylpiperazine)-1-yl)-2-((tetrahydro-1H-pyrinecyclo-7a(5H)-yl)methoxy)quinazoline] reads not above 50 nM.
Same read-out and setting: the result for `C=CC(=O)N1CCN(c2nc(OCC34CCCN3CCC4)nc3c(F)c(-c4cc(O)cc5cccc(F)c45)ccc23)[C@H](C)C1` [Compound 49, 7-(3-Hydroxy-8-fluoronaphthyl)-8-fluoro-4-(((R)-4-acryloyl-2-methylpiperazine)-1-yl)-2-((tetrahydro-1H-pyrinyl-7a(5H)-yl)methoxy)quinazoline] reads not above 50 nM.
Same read-out and setting: to “7-(8-Methylnaphthyl)-8-fluoro-4-(((R)-4-acryloyl-2-methylpiperazine)-1-yl)-2-(((S)-2,2-difluorotetrahydro-1H-pyrinyl-7a(5H)-yl)methoxy)quinazoline [Compound 62]” belongs not above 50 nM; to `C=C(F)C(=O)N1CCN(c2nc(OC[C@@]34CCCN3CC(F)(F)C4)nc3nc(-c4cccc5cccc(F)c45)ccc23)C[C@@H]1CC#N` [Compound 90, 7-(8-Fluoronaphthyl)-4-(((S)-4-(2-fluoroacryloyl)-3-carbonitrileethylpiperazine)-1-yl)-2-(((S)-2,2-difluorotetrahydro-1H-pyrincyclo-7a(5H)-yl)methoxy)pyridine[2,3-d]lopyrimidine], not above 50 nM.
